In ChEMBL document CHEMBL4673273, “Development of autotaxin inhibitors: A series of tetrazole cinnamides” (Bioorg Med Chem Lett, 2021):

Assays:
[1] = system: Rattus norvegicus; test: (§1) In vivo inhibition of ATX in po dosed Sprague-Dawley rat assessed as inhibition of LPA formation in serum by LC-MS analysis; assay type: functional, organism-based
[2] = as §1; assay type: functional, organism-based
[3] = molecular target: T1, Autotaxin (Homo sapiens, UniProt Q13822); test: Inhibition of ATX in human serum assessed as reduction in LPA (18:1) level by LC-MS analysis; assay type: cell-free
[4] = Volume of distribution at steady state in Sprague-Dawley rat at 1 mg/kg, iv; assay type: ADME, organism-based; details: in vivo, read-out: Vdss
[5] = Half life in Sprague-Dawley rat at 1 mg/kg, iv; assay type: ADME, organism-based; details: in vivo
[6] = Cmax in Sprague-Dawley rat at 10 mg/kg, po; assay type: ADME, organism-based; design: route oral, dose 10 mg/kg; details: in vivo
[7] = Clearance in Sprague-Dawley rat at 1 mg/kg, iv; assay type: ADME, organism-based; details: in vivo
[8] = Metabolic stability in rat liver microsomes assessed as intrinsic clearance; assay type: ADME, Microsome; details: read-out: CLH
[9] = Tmax in Sprague-Dawley rat at 10 mg/kg, po; assay type: ADME, organism-based; details: in vivo
[10] = Oral bioavailability in Sprague-Dawley rat at 10 mg/kg; assay type: ADME, organism-based; details: in vivo
[11] = Metabolic stability in human liver microsomes assessed as intrinsic clearance; assay type: ADME, Microsome; details: read-out: CLH
[12] = molecular target: Voltage-gated inwardly rectifying potassium channel KCNH2 (Homo sapiens, UniProt Q12809); test: Inhibition of human ERG expressed in CHO-K1 cells by automated Qpatch clamp assay
[13] = AUC (0 to infinity) in Sprague-Dawley rat at 10 mg/kg, po; assay type: ADME, organism-based; design: route oral, time infinity, dose 10 mg/kg; details: in vivo
[14] = molecular target: T1, Autotaxin
Description: Inhibition of human recombinant ATX expressed in HEK293 cells assessed as inhibition of choline release using LPC (18:1) as substrate preincubated with enzyme for 20 mins followed by substrate addition and measured every 2 mins for 40 mins by resurofin-based fluorescence analysis

[15] = Equilibrium solubility of compound at pH 6.8; assay type: physicochemical; details: buffer
[16] = Passive Permeability of the compound across artificial membrane assessed as fraction absorbed by PAMPA assay

Voltage-gated inwardly rectifying potassium channel KCNH2, sequence (Q12809 whole entry): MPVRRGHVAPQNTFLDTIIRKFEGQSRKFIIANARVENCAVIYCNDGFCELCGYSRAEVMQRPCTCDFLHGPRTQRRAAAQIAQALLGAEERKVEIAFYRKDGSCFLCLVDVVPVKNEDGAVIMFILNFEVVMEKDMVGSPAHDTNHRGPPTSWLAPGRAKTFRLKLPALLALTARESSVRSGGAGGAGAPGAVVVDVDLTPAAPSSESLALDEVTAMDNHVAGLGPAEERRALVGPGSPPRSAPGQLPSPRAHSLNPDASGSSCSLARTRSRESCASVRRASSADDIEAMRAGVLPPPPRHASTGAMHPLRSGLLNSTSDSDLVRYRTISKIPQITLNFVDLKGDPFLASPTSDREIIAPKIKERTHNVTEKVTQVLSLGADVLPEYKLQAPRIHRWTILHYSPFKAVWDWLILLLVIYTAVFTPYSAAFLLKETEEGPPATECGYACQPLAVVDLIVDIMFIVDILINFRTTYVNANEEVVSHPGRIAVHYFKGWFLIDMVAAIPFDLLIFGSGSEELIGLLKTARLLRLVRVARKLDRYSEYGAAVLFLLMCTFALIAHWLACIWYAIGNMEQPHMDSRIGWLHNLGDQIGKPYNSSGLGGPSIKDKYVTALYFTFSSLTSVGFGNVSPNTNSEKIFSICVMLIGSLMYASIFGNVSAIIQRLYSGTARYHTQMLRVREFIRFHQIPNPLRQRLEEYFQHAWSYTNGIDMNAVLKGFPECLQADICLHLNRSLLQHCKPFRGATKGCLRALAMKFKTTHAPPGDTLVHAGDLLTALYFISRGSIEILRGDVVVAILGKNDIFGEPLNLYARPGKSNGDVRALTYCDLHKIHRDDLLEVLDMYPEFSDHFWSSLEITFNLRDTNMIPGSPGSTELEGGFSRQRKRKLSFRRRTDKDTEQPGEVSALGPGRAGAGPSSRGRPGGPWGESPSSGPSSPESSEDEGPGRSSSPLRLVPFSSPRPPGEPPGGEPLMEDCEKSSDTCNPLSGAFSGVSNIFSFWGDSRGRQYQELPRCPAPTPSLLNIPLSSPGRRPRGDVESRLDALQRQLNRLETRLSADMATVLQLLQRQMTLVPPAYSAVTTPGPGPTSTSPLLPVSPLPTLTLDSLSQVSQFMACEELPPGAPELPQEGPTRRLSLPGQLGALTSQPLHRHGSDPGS

Compound | microsomal CLint [8] | IC50 [12] | IC50 [14] | further results
Cc1nnn(Cc2cc(C(F)(F)F)ccc2/C=C/C(=O)N2CCC(c3nnc(C)o3)CC2)n1 | 19 µL/min/mg | 23000 nM |  | inhibition [1]: Dose-dependent effect; IC50 [2]: 5 nM; IC50 [3]: 12 nM; Vd [4]: 1.8 L/kg; half-life [5]: 3.6 h; Cmax [6]: 5.1 µM; clearance [7]: 15 mL/min/kg; Tmax [9]: 1.3 h; bioavailability [10]: 94%; microsomal CLint [11]: 13 µL/min/mg; AUC [13]: 23.2 µM·h
Cc1nnn(Cc2cc(Cl)ccc2/C=C/C(=O)N2CCNC[C@H]2C)n1 | 84 µL/min/mg |  | 95 nM | 
Cc1noc(Cc2cc(Cl)ccc2/C=C/C(=O)N2CCN(Cc3ccc(F)cc3)C[C@H]2C)n1 | 580 µL/min/mg |  | 18 nM | 
Cc1ncn(C2CCN(C(=O)/C=C/c3ccc(C(F)(F)F)cc3Cn3nnc(C)n3)CC2)n1 | 15 µL/min/mg | 25000 nM | 16 nM | microsomal CLint [11]: 16 µL/min/mg
Cc1cc(CN2CCN(C(=O)/C=C/c3ccc(Cl)cc3Cn3nnc(C)n3)CC2)on1 | 88 µL/min/mg | 12000 nM |  | 
COc1ccc(CN2CCN(C(=O)/C=C/c3ccc(Cl)cc3Cn3nnc(C)n3)CC2)nc1 | 190 µL/min/mg | 1900 nM |  | 
Cc1nnn(Cc2cc(Cl)ccc2/C=C/C(=O)N2CCN(C(=O)c3ccc(F)cc3)CC2)n1 | 71 µL/min/mg |  | 1600 nM | 
Cc1nnn(Cc2cc(C(F)(F)F)ccc2/C=C/C(=O)N2CCC(c3noc(C)n3)CC2)n1 | 35 µL/min/mg | > 30000 nM |  | microsomal CLint [11]: 19 µL/min/mg
Cc1nnn(Cc2cc(Cl)ccc2/C=C/C(=O)N2CCN(Cc3coc(C)n3)CC2)n1 | 72 µL/min/mg | 23000 nM |  | Vd [4]: 1.6 L/kg; half-life [5]: 0.8 h; Cmax [6]: 2.8 µM; clearance [7]: 45 mL/min/kg; Tmax [9]: 0.4 h; solubility thermodynamic [15]: > 1000 µM; bioavailability [10]: 52%; AUC [13]: 4.4 µM·h
Cc1nnn(Cc2cc(Cl)ccc2CCC(=O)N2CCN(Cc3ccc(F)cc3)C[C@H]2C)n1 | > 920 µL/min/mg |  | 19 nM | 
Cc1cnn(Cc2cc(Cl)ccc2/C=C/C(=O)N2CCN(Cc3ccc(F)cc3)C[C@H]2C)n1 | 690 µL/min/mg |  | 5.9 nM | 
Cc1nnn(Cc2cc(Cl)ccc2/C=C/C(=O)N2CCN(Cc3ccc(F)cc3)CC2)n1 | 470 µL/min/mg |  | 20 nM | 
Cc1nnn(Cc2cc(C(F)(F)F)ccc2/C=C/C(=O)N2CCC(C#N)CC2)n1 | 28 µL/min/mg | 25000 nM | 790 nM | Fa [16]: 27%
Cc1nnn(Cc2cc(Cl)ccc2/C=C/C(=O)N2CCC(Cc3nnc(C)o3)CC2)n1 | 89 µL/min/mg | > 30000 nM |  | 
Cc1nnn(Cc2cc(C(F)(F)F)ccc2/C=C/C(=O)N2CCC(C(F)(F)F)CC2)n1 | 41 µL/min/mg |  | 13 nM | 
COc1ccc(CN2CCN(C(=O)/C=C/c3ccc(Cl)cc3Cn3nnc(C)n3)CC2)cc1 | 520 µL/min/mg |  | 9.2 nM | 
Cc1nnn(Cc2cc(Cl)ccc2/C=C/C(=O)N2CCN(Cc3ccc(F)cc3)C[C@H]2C)n1 | 510 µL/min/mg |  | 9.6 nM | microsomal CLint [11]: 230 µL/min/mg
Cc1nnn(Cc2cc(C(F)(F)F)ccc2/C=C/C(=O)N2CCC(Cl)CC2)n1 | 89 µL/min/mg | > 30000 nM | 60 nM | Fa [16]: 89%
Cc1noc(C2CCN(C(=O)/C=C/c3ccc(C(F)(F)F)cc3Cn3nnc(C)n3)CC2)n1 | 36 µL/min/mg |  |  | 
Cc1cc(CN2CCN(C(=O)/C=C/c3ccc(Cl)cc3Cn3nnc(C)n3)CC2=O)on1 | 87 µL/min/mg |  | 26 nM | 
Cc1nnn(Cc2cc(Cl)ccc2/C=C/C(=O)N2CCN(Cc3cnn(C)c3)CC2)n1 | 49 µL/min/mg | 15000 nM |  | 
C[C@@H]1CN(Cc2ccc(F)cc2)CCN1C(=O)/C=C/c1ccc(Cl)cc1Cn1ncnn1 | 730 µL/min/mg |  | 16 nM | 
Cc1nnn(Cc2cc(Cl)ccc2/C=C/C(=O)N2CCC(Cc3ncc(C)o3)CC2)n1 | 570 µL/min/mg |  |  | 
